# Reference: PubChem BioAssay AID624437 (The Scripps Research Institute Molecular Screening Center, 2012)
# Active and inactive are the calls of the source.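 Rule for the calls: active = PP1 inhibition of at least 30% at 50 µM, though none qualified; inactive = the rest.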
# Target: Serine/threonine-protein phosphatase PP1-alpha catalytic subunit (Homo sapiens) (UniProt P62136)
# Experiment: inhibitors of PP1 histone dephosphorylation – biochemical, 33P-phosphohistone, radiolabel, single concentration, round 5, selectivity assay for PP5 inhibitor project, late-stage follow-up (AID 624437)
# Conditions: purified PP1alpha, 33P-phosphohistone dephosphorylation, scintillation; at 50 µM; hits give high values
# Sequence of Serine/threonine-protein phosphatase PP1-alpha catalytic subunit (Homo sapiens) (P62136 whole entry, looked up): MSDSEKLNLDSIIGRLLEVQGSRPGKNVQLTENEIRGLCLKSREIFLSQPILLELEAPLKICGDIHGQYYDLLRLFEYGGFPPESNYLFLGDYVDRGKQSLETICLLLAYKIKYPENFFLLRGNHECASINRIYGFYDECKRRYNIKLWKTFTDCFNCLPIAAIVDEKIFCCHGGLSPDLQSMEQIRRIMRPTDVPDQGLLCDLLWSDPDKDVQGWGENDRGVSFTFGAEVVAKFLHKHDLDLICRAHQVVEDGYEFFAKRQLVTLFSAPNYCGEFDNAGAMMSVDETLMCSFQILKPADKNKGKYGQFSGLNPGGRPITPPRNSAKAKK
row,Compound,inhibition
1,O=C(O)c1n[nH]nc1-c1cccc(F)c1,10.3% (inactive)
2,COc1ccc(-c2n[nH]nc2C(=O)O)cc1,1.04% (inactive)
3,COc1cccc(-c2n[nH]nc2C(=O)O)c1,11.1% (inactive)
4,O=C(O)c1n[nH]nc1-c1ccc(F)cc1,10.4% (inactive)

# Further lines, results first:
row,inhibition,Compound
1,10.9% (inactive),O=C(O)c1n[nH]nc1-c1ccccc1O
2,20.5% (inactive),O=C(O)c1n[nH]nc1-c1ccccc1F
3,23.3% (inactive),COc1ccccc1-c1n[nH]nc1C(=O)O
